Test results published in article doi:10.1101/2022.07.06.498982v1 (biorxiv, 2022).

Assays:
[1] = target: soluble recombinant human TLR4 (hTLR4) (Homo sapiens, UniProt O00206); experiment: biochemical
[2] = target: soluble recombinant mouse TLR4 (mTLR4) (Mus musculus, UniProt Q9QUK6); experiment: biochemical
Chain of soluble recombinant mouse TLR4 (mTLR4) (Q9QUK6 26-638 limits assumed): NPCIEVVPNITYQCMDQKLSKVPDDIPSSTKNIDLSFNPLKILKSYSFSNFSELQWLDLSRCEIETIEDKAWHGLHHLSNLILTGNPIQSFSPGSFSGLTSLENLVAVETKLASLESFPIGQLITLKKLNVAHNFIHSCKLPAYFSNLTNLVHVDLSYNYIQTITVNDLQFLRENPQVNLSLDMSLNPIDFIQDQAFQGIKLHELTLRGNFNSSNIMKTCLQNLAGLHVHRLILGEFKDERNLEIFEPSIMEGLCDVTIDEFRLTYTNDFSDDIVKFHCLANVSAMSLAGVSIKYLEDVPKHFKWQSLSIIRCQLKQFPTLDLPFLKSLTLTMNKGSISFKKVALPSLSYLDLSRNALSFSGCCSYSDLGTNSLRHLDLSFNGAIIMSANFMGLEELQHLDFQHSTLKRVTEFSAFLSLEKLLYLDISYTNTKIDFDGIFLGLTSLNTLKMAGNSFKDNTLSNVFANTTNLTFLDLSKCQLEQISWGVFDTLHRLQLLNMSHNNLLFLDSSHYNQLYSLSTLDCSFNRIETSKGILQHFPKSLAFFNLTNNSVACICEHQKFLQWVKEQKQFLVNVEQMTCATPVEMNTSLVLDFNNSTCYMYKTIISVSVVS

Chain of soluble recombinant human TLR4 (hTLR4) (O00206 24-631 limits assumed): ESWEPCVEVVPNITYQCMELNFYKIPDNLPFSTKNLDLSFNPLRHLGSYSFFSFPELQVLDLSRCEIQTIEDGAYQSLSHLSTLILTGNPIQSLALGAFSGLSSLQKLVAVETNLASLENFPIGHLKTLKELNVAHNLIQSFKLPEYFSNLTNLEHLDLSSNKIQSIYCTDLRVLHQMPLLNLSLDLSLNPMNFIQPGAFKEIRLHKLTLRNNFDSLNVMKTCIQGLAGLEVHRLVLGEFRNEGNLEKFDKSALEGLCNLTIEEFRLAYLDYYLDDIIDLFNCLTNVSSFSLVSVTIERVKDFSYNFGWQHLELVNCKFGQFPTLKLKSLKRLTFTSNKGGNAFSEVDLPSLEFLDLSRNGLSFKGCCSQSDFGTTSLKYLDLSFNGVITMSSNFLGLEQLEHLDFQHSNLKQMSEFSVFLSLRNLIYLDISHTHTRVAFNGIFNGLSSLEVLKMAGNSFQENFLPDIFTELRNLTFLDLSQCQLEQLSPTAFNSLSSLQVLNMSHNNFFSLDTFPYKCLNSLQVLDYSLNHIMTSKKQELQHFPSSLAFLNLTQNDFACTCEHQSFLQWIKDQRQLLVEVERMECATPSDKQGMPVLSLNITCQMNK

Kd [1]: 100 µM
Kd [2]: 134 µM
SMILES: [NH2][Pt]([NH2])([Cl])[Cl] [cisplatin]
